From EPA's ToxValDB 9.5 (doi:10.2903/j.efsa.2008.137r)
≈ marks a conversion by molar mass, not a printed value.

Assays:
Bibionidae = conditions: chronic/long-term; duration: 28 days; seedling emergence
Apis mellifera = conditions: acute; duration: 48 hours; oral; unspecified; mortality
Folsomia candida = conditions: chronic/long-term; duration: 28 days
Mus musculus = conditions: chronic; duration: 2 years; organ weight
Rattus norvegicus = conditions: for NOEC: chronic, M
Oryctolagus sp. = conditions: developmental; development
Canidae = conditions: chronic; duration: 52 weeks; oral; Dog Other; body weight
Anas platyrhynchos = conditions: short-term; oral; feed; mortality
Lepomis macrochirus = conditions: acute; duration: 96 hours; mortality
Daphnia magna = conditions: chronic/long-term; duration: 21 days; growth
Pimephales promelas = conditions: chronic/long-term; duration: 278 days; growth
Aphidius rhopalosiphi = assay: LR50; higher = less toxic; conditions: not reported; mortality

O=[N+]([O-])c1cc(C(F)(F)F)c(Cl)c([N+](=O)[O-])c1Nc1ncc(C(F)(F)F)cc1Cl [Fluazinam]
NOEC (Bibionidae): 0.00625 mg/L
LD50 (Apis mellifera): > 100 µg/piece
NOEC (Folsomia candida): < 1.57 mg/kg
NOAEL (Mus musculus): 1.12 mg/kg-day
LD50 (Rattus norvegicus; acute, F, mortality): 4100 mg/kg-day
NOEC (Rattus norvegicus): 5 mg/kg-day
NOEC (Rattus norvegicus; mortality): 100 mg/kg-day
NOAEL (Oryctolagus sp.): 7 mg/kg-day
NOAEL (Canidae): 1 mg/kg-day
LC50 (Anas platyrhynchos): > 1230 mg/kg-day
LC50 (Lepomis macrochirus): 0.055 µg/mL (≈ 0.118 µM)
LC50 (Tagia sp.; acute, duration: 14 days, mortality): > 1000 mg/kg
NOEC (Tagia sp.; chronic/long-term, duration: 28 days): 0.35 mg/kg
NOEC (Daphnia magna): 0.0125 mg/L
LD50 (Colinus virginianus; acute, oral, mortality): 1780 mg/kg-day
NOEC (Colinus virginianus; reproduction developmental): 60.4 mg/kg-day
NOEC (Pimephales promelas): 0.0029 mg/L
LR50 (Aphidius rhopalosiphi): > 200 g/ha
